Results as given in PMC12396240 (Drug Design, Development and Therapy, 2025).
“Also recorded” adds a separate entry of the source. Each block holds one compound with its values, some of them ahead of it.

Key:
[1] = Pharmacokinetics of apixaban in rats, alone and with palbociclib; type: in vivo, Sprague-Dawley rats
[2] = Pharmacokinetics of rivaroxaban in rats, alone and with palbociclib; type: in vivo, Sprague-Dawley rats
[3] = Pharmacokinetics of palbociclib in rats, alone and with apixaban or rivaroxaban; type: in vivo, Sprague-Dawley rats
BCRP (Abcg2) = experiment: qRT-PCR mRNA expression in rat liver and intestine after palbociclib for 8 days; type: in vivo; settings: palbociclib for eight consecutive days vs blank control
P-gp (Abcb1a) = experiment: as above; type: in vivo; settings: palbociclib for eight consecutive days vs blank control
[4] = apixaban 0.25 mg/kg alongside palbociclib, rats, no statistical significance
[5] = apixaban 0.5 mg/kg with simultaneous palbociclib vs apixaban-only group, rats
[6] = apixaban 0.5 mg/kg with simultaneous palbociclib vs control group, rats
[7] = SD rats, oral, rivaroxaban 2 mg/kg alone, geometric mean (GSD) (geometric CV%)
[8] = male, Sprague-Dawley, rat, plasma, po, 2 mg/kg
[9] = rivaroxaban 1 mg/kg + multiple doses of palbociclib compared with rivaroxaban 2 mg/kg, rats
[10] = palbociclib co-administered with apixaban vs palbociclib alone, rats
[11] = palbociclib co-administered with rivaroxaban vs palbociclib alone, rats

- CLz ([1]; SD rats, oral, apixaban 0.5 mg/kg alone, geometric mean (GSD) (geometric CV%)): 0.86(GSD 1.49) (110.3%) L/h/kg
- differences for CLz/F, Tmax, t1/2, Vz/F, MRT0-t and MRT0-∞ of apixaban ([1]; apixaban 0.25 mg/kg alongside palbociclib, rats): no significant differences
- increase in AUC0-t of apixaban [1, 4]: 43.35%
- increase in AUC0-∞ of apixaban [1, 4]: 43.49%
- increase in Cmax of apixaban [1, 4]: 45.03%
- increase in AUC0-t of apixaban [1, 5]: 258.36%
- increase in AUC0-∞ of apixaban [1, 5]: 256.64%
- increase in Cmax of apixaban [1, 5]: 243.61%
- decrease in apparent volume of distribution Vz/F of apixaban [1, 6]: 73.73%
- decrease in clearance CLz/F of apixaban [1, 6]: 72.53%
- AUC(0-t) ([1]; male, Sprague-Dawley, rat, plasma, po, 0.5 mg/kg, AUC0-t, SD rats, apixaban 0.5 mg/kg alone, geometric mean (GSD) (geometric CV%)): 579 ng·h/mL
- AUC(0-inf) ([1]; male, Sprague-Dawley, rat, plasma, po, 0.5 mg/kg, AUC0-∞, SD rats, apixaban 0.5 mg/kg alone, geometric mean (GSD) (geometric CV%)): 583 ng·h/mL
- Cmax ([1]; male, Sprague-Dawley, rat, plasma, po, 0.5 mg/kg, Cmax, SD rats, apixaban 0.5 mg/kg alone, geometric mean (GSD) (geometric CV%)): 243 ng/mL
- MRT last ([1]; male, Sprague-Dawley, rat, plasma, po, 0.5 mg/kg, MRT0-t, SD rats, apixaban 0.5 mg/kg alone, geometric mean (GSD) (geometric CV%)): 1.83 h
- MRT inf ([1]; male, Sprague-Dawley, rat, plasma, po, 0.5 mg/kg, MRT0-∞, SD rats, apixaban 0.5 mg/kg alone, geometric mean (GSD) (geometric CV%)): 1.92 h
- Tmax ([1]; male, Sprague-Dawley, rat, plasma, po, 0.5 mg/kg, Tmax, SD rats, apixaban 0.5 mg/kg alone, geometric mean (GSD) (geometric CV%)): 0.53 h
SMILES: COc1ccc(-n2nc(C(N)=O)c3c2C(=O)N(c2ccc(N4CCCCC4=O)cc2)CC3)cc1 [Apixaban, apixaban]
- effect on pharmacokinetic parameters of apixaban ([1]; apixaban and palbociclib given 12 hours apart, rats): no significant pharmacokinetic changes; also recorded: not affected

- CLz [2, 7]: 0.69(GSD 1.20) (65.6%) L/h/kg
- Vz [2, 7]: 2.13(GSD 1.55) (118.4%) L/kg
- MRT inf [2, 8]: 3.67 h
- MRT last [2, 8]: 3.32 h
- AUC(0-t) ([2]; male, Sprague-Dawley, rat, plasma, po, 2 mg/kg, AUC0-t, SD rats, rivaroxaban 2 mg/kg alone, geometric mean (GSD) (geometric CV%)): 691 ng·h/mL
- AUC(0-inf) ([2]; male, Sprague-Dawley, rat, plasma, po, 2 mg/kg, AUC0-∞, SD rats, rivaroxaban 2 mg/kg alone, geometric mean (GSD) (geometric CV%)): 722 ng·h/mL
- Tmax ([2]; male, Sprague-Dawley, rat, plasma, po, 2 mg/kg, Tmax, SD rats, rivaroxaban 2 mg/kg alone, geometric mean (GSD) (geometric CV%)): 1.02 h
- decrease in MRT0-t of rivaroxaban [2, 9]: 27.82%
- decrease in MRT0-∞ of rivaroxaban [2, 9]: 35.43%
- decrease in apparent volume of distribution Vz/F of rivaroxaban [2, 9]: 77.46%
- decrease in clearance CLz/F of rivaroxaban [2, 9]: 60.87%
- differences for Tmax and t1/2 of rivaroxaban [2, 9]: no significant differences
- increase in AUC0-t of rivaroxaban [2, 9]: 161.86%
- increase in AUC0-∞ of rivaroxaban [2, 9]: 150.93%
- increase in Cmax of rivaroxaban [2, 9]: 243.63%
SMILES: O=C(NC[C@H]1CN(c2ccc(N3CCOCC3=O)cc2)C(=O)O1)c1ccc(Cl)s1 [Rivaroxaban, rivaroxaban]
- effect on pharmacokinetic parameters of rivaroxaban ([2]; rivaroxaban and palbociclib given 12 hours apart, rats): no significant pharmacokinetic changes; also recorded: not affected

- AUC(0-t) ([3]; male, Sprague-Dawley, rat, plasma, po, 11 mg/kg, AUC0-t, SD rats, palbociclib 11 mg/kg alone, geometric mean (GSD) (geometric CV%)): 4340 ng·h/mL
- AUC(0-inf) ([3]; male, Sprague-Dawley, rat, plasma, po, 11 mg/kg, AUC0-∞, SD rats, palbociclib 11 mg/kg alone, geometric mean (GSD) (geometric CV%)): 4350 ng·h/mL
- Cmax ([3]; male, Sprague-Dawley, rat, plasma, po, 11 mg/kg, Cmax, SD rats, palbociclib 11 mg/kg alone, geometric mean (GSD) (geometric CV%)): 469 ng/mL
- MRT last ([3]; male, Sprague-Dawley, rat, plasma, po, 11 mg/kg, MRT0-t, SD rats, palbociclib 11 mg/kg alone, geometric mean (GSD) (geometric CV%)): 7.33 h
- MRT inf ([3]; male, Sprague-Dawley, rat, plasma, po, 11 mg/kg, MRT0-∞, SD rats, palbociclib 11 mg/kg alone, geometric mean (GSD) (geometric CV%)): 7.39 h
- Tmax ([3]; male, Sprague-Dawley, rat, plasma, po, 11 mg/kg, Tmax, SD rats, palbociclib 11 mg/kg alone, geometric mean (GSD) (geometric CV%)): 2.83 h
- half-life ([3]; male, Sprague-Dawley, rat, plasma, po, 11 mg/kg, t1/2, SD rats, palbociclib 11 mg/kg alone, geometric mean (GSD) (geometric CV%)): 3.99 h
- increase in AUC0-t of palbociclib [3, 10]: 24.75%
- increase in AUC0-∞ of palbociclib [3, 10]: 24.83%
- increase in Cmax of palbociclib [3, 10]: 49.30%
- increase in AUC0-t of palbociclib [3, 11]: 32.94%
- increase in AUC0-∞ of palbociclib [3, 11]: 33.13%
SMILES: CC(=O)c1c(C)c2cnc(Nc3ccc(N4CCNCC4)cn3)nc2n(C2CCCC2)c1=O [Palbociclib, palbociclib]
- effect on BCRP mRNA expression (BCRP (Abcg2); intestine): no significant inhibition
- decrease of BCRP mRNA expression (BCRP (Abcg2); liver): 31.66%
- downregulation of P-gp mRNA expression (P-gp (Abcb1a); intestine): 20.17%
- effect on P-gp mRNA expression (P-gp (Abcb1a); liver): no significant effect
